Data: publication PMC5916032 (Journal of molecular biology, 2018)

Biological target: fascin 1 (Homo sapiens, UniProt Q16658)
Test: X-ray co-crystal structure
Type: biochemical

Structure (SMILES): Cc1cnoc1C(=O)Nc1nn(Cc2ccc(C(F)(F)F)cc2)c2ccccc12 [NP-G2-029, 4-methyl-N-(1-(4-(trifluoromethyl)benzyl)-1H-indazol-3-yl)isoxazole-5-carboxamide]
- IC50: ~0.18 µM
